US12552744B2, “Method for producing monosulfoxide derivative” (KUMIAI CHEMICAL INDUSTRY CO., LTD., priority 2020, dated 2026)

Experiment: Solubility of the compound in solvents
Type: physicochemical
Conditions: at 5° C.

solubility in a mixed solution of 70 wt. % t-butanol/water: about 2 wt. %
SMILES: [O-][S+](CC(F)(F)F)c1cc(OCCCCCSC(F)(F)F)c(F)cc1Cl (stereo not shown) [B-a, 5-trifluoromethylthiopentyl-[4-chloro-2-fluoro-5-(2,2,2-trifluoroethylsulfinyl)phenyl]ether]
